Measurements from US11136312B2, “3,4,5-trisubstituted-1,2,4-triazoles and 3,4,5-trisubstituted-3-thio-1,2,4-triazoles and uses thereof” (Board of Trustees of Southern Illinois University, priority 2017, dated 2021).
pEC50, pKi: −log10 of the molar value.

How the values were obtained:
[1] = molecular target: human somatostatin receptor SSTR2A (Homo sapiens (Human), UniProt P30874); test: Competitive radioligand binding, 125I-Tyr-SRIF 14, membrane preparations; settings: competitive binding vs 125I-Tyr-SRIF 14, human SSTR2A membranes; read-out: SST2
Protocol: (§1) Respective membrane receptor preparations were prepared in assay buffer (25 mM HEPES, 10 mM MgCl2, 1 mM CaCl2, 0.5% BSA, pH=7.4) at a 1:150 dilution. […] Binding assays were performed in triplicate for each concentration of ligand in a total volume of 200 μL radioligand (25 μL ligand, 25 μL radioligand, 150 μL receptors) and incubated at room temperature for 90 minutes using a shaking table. Binding was terminated by filtration through GF/B glass fiber filters that were presoaked in 0.5% polyethyleneimine for a minimum of 4 hours. Filters were washed 9× with 1000 μL ice cold wash buffer (50 mM Tris-HCl, pH=7.4, 0.2% BSA). Filters were scored, transferred into plastic test tubes and counted in a gamma counter (Wizard2, Perkin-Elmer). Determination of the Ki for each compound was performed using non-linear regression with GraphPad PRISM-5 software (GraphPad Software, Inc., La Jolla, Calif.).

[2] = molecular target: CHO-K1 cells expressing human somatostatin SSTR4 (Homo sapiens (Human), UniProt P31391); test: Inhibition of forskolin stimulated cAMP, TR-FRET LANCE assay; format: cell-based; settings: against 5 μM forskolin
Protocol: Measurement of forskolin stimulated inhibition of cAMP was performed via time-resolved fluorescence resonance energy transfer (TR-FRET) LANCE assay (AD0262, PerkinElmer Life Science, Inc., Boston Mass.). […] LANCE cAMP assay was performed per manufacture instruction with assessment of respective compound, somatostatin-28 (Sigma-Aldrich Co., St. Louis, Mo.) as control agonist, against 5 μM forskolin, performed in triplicate across concentration curve. […] Data was calculated via GraphPad PRISM-5 software.

[3] = molecular target: human somatostatin receptor SSTR3 (Homo sapiens (Human), UniProt P32745); test: Competitive radioligand binding, 125I-Tyr-SRIF 14, membrane preparations; settings: competitive binding vs 125I-Tyr-SRIF 14, human SSTR3 membranes; read-out: SST3
Protocol: Competitive radioligand binding experiments were performed using MEMBRANE TARGET Systems (Perkin-Elmer, Boston, Mass.) for human somatostatin receptors: SSTR1 (ES-520-M400UA), SSTR2A (ES-521-M400UA), SSTR3 (ES523-M400UA), SSTR4 (ES-524-M400UA) and SSTR5 (ES-522-M400UA) receptors. (See Table 1). Respective membrane receptor preparations were prepared in assay buffer (25 mM HEPES, 10 mM MgCl2, 1 mM CaCl2, 0.5% BSA, pH=7.4) at a 1:150 dilution. Binding assays were performed using 1251-Tyr-SRIF 14 (Perkin-Elmer, NEX 3890) dissolved in 1 mM HCl. Binding assays were performed in triplicate for each concentration of ligand in a total volume of 200 μL radioligand (25 μL ligand, 25 μL radioligand, 150 μL receptors) and incubated at room temperature for 90 minutes using a shaking table. Binding was terminated by filtration through GF/B glass fiber filters that were presoaked in 0.5% polyethyleneimine for a minimum of 4 hours. Filters were washed 9× with 1000 μL ice cold wash buffer (50 mM Tris-HCl, pH=7.4, 0.2% BSA). Filters were scored, transferred into plastic test tubes and counted in a gamma counter (Wizard2, Perkin-Elmer). Determination of the Ki for each compound was performed using non-linear regression with GraphPad PRISM-5 software (GraphPad Software, Inc., La Jolla, Calif.).

[4] = molecular target: human somatostatin receptor SSTR5 (Homo sapiens (Human), UniProt P35346); test: as above; settings: competitive binding vs 125I-Tyr-SRIF 14, human SSTR5 membranes; read-out: SST5
Protocol: as §1

[5] = molecular target: human somatostatin receptor SSTR1 (Homo sapiens (Human), UniProt P30872); test: as above; settings: competitive binding vs 125I-Tyr-SRIF 14, human SSTR1 membranes; read-out: SST1
Protocol: as §1

Sequence of human somatostatin receptor SSTR2A (P30874 whole entry): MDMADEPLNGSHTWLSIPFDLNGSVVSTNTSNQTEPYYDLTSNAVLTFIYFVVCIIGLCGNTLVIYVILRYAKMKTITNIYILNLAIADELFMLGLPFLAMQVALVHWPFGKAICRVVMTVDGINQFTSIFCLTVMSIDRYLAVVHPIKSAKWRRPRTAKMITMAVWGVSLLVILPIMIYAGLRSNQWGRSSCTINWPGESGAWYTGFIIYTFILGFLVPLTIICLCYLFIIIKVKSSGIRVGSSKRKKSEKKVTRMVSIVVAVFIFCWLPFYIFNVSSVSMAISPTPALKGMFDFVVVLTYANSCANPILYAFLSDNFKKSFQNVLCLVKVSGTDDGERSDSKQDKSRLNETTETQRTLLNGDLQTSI
Sequence of CHO-K1 cells expressing human somatostatin SSTR4 (P31391 whole entry): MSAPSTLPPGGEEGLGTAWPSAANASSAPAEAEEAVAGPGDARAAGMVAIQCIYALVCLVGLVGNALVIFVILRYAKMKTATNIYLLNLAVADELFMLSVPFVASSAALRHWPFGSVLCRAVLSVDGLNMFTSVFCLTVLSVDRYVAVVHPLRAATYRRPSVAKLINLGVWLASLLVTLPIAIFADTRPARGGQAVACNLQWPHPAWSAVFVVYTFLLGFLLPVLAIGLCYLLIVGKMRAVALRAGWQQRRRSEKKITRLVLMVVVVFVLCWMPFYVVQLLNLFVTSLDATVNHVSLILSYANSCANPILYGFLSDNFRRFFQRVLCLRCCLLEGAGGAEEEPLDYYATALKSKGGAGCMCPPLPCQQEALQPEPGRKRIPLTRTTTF

Structure (SMILES) | pKi [1] | pEC50 [2] | pKi [3] | pKi [4] | pKi [5]
c1ccc(Cc2nnc(Cc3c[nH]c4ccccc34)n2CCCc2c[nH]cn2)cc1 [SK-I-25, 3-((4-(3-(1H-imidazol-4-yl)propyl)-5-benzyl-4H-1,2,4-triazol-3-yl)methyl)-1H-indole] | < 5.00 | 8.69 | 8.77 | – | –
COc1ccc2[nH]cc(Cc3nnc(Cc4ccc(F)cc4)n3CCCc3c[nH]cn3)c2c1 [SK-I-55, 3-((4-(3-(1H-imidazol-4-yl)propyl)-5-(4-fluorobenzyl)-4H-1,2,4-triazol-3-yl)methyl)-5-methoxy-1H-indole] | 5.26 | – | < 5.00 | < 5.00 | 5.99
COc1ccc(Cc2nnc(Cc3c[nH]c4ccc(OC)cc34)n2CCCc2c[nH]cn2)cc1 [SK-I-56, 3-((4-(3-(1H-imidazol-4-yl)propyl)-5-(4-methoxybenzyl)-4H-1,2,4-triazol-3-yl)methyl)-5-methoxy-1H-indole] | < 5.00 | – | < 5.00 | < 5.00 | 6.00
COc1ccc2[nH]cc(Cc3nnc(Cc4cccc(C(F)(F)F)c4)n3CCCc3c[nH]cn3)c2c1 [SK-I-57, 3-((4-(3-(1H-imidazol-4-yl)propyl)-5-(3-(trifluoromethyl)benzyl)-4H-1,2,4-triazol-3-yl)methyl)-5-methoxy-1H-indole] | 5.77 | – | 5.95 | < 5.00 | 6.44
Fc1ccc(Cc2nnc(Cc3c[nH]c4cc(F)ccc34)n2CCCc2c[nH]cn2)cc1 [SK-I-91, 3-((4-(3-(1H-imidazol-4-yl)propyl)-5-(4-fluorobenzyl)-4H-1,2,4-triazol-3-yl)methyl)-6-fluoro-1H-indole] | 5.40 | – | < 5.00 | < 5.00 | 6.33
COc1ccc(Cc2nnc(Cc3c[nH]c4cc(F)ccc34)n2CCCc2c[nH]cn2)cc1 [SK-I-105, 3-((4-(3-(1H-imidazol-4-yl)propyl)-5-(4-methoxybenzyl)-4H-1,2,4-triazol-3-yl)methyl)-6-fluoro-1H-indole] | 5.28 | – | < 5.00 | < 5.00 | 5.97
CC(C)(C)Cc1nnc(Cc2c[nH]c3cc(F)ccc23)n1CCCc1c[nH]cn1 [SK-I-119, 3-((4-(3-(1H-imidazol-4-yl)propyl)-5-neopentyl-4H-1,2,4-triazol-3-yl)methyl)-6-fluoro-1H-indole] | < 5.00 | – | < 5.00 | < 5.00 | 5.36
Fc1ccc2c(Cc3nnc(Cc4c[nH]c5cc(F)ccc45)n3CCCc3c[nH]cn3)c[nH]c2c1 [SK-I-124, 3,3′-((4-(3-(1H-imidazol-4-yl)propyl)-4H-1,2,4-triazol-3,5-diyl)bis(methylene))bis(6-fluoro-1H-indole)] | 6.19 | – | 5.76 | < 5.00 | 7.01
c1ccc(Cc2nnc(CCc3c[nH]c4ccccc34)n2CCCc2c[nH]cn2)cc1 [SM-I-26, 3-(2-(4-(3-(1H-Imidazol-4-yl)propyl)-5-benzyl-4H-1,2,4-triazol-3-yl)ethyl)-1H-indole] | < 5.00 | – | < 5.00 | < 5.00 | < 5.00
Fc1cccc(Cc2nnc(CCc3c[nH]c4ccccc34)n2CCCc2c[nH]cn2)c1 [SM-I-38, 3-(2-(4-(3-(1H-Imidazol-4-yl)propyl)-5-(3-fluorobenzyl)-4H-1,2,4-triazol-3-yl)ethyl)-1H-indole] | < 5.00 | – | < 5.00 | < 5.00 | < 5.00
Brc1cccc(Cc2nnc(CCc3c[nH]c4ccccc34)n2CCCc2c[nH]cn2)c1 [SM-I-50, 3-(2-(4-(3-(1H-Imidazol-4-yl)propyl)-5-(3-bromobenzyl)-4H-1,2,4-triazol-3-yl)ethyl)-1H-indole] | < 5.00 | – | < 5.00 | < 5.00 | 5.32
Fc1cc(F)cc(Cc2nnc(CCc3c[nH]c4ccccc34)n2CCCc2c[nH]cn2)c1 [SM-I-55, 3-(2-(4-(3-(1H-Imidazol-4-yl)propyl)-5-(3,5-difluorobenzyl)-4H-1,2,4-triazol-3-yl)ethyl)-1H-indole] | < 5.00 | – | < 5.00 | < 5.00 | < 5.00
Cn1cc(CCc2nnc(Cc3ccc(Cl)c(Cl)c3)n2CCCc2c[nH]cn2)c2ccccc21 [SM-I-60, 3-(2-(4-(3-(1H-Imidazol-4-yl)propyl)-5-(3,4-dichlorobenzyl)-4H-1,2,4-triazol-3-yl)ethyl)-1-methyl-1H-indole] | < 5.00 | – | 5.16 | < 5.00 | 5.50
